Laboratory results reported in paper PMC8635623, “A click chemistry approach to pleuromutilin derivatives, evaluation of anti-MRSA activity and elucidation of binding mode by surface plasmon resonance and molecular docking” (Journal of Enzyme Inhibition and Medicinal Chemistry, 2021).
Values after ≈ are worked out from the molar mass of the structure shown. Like-named read-outs stand apart in the source and are kept apart here.

Key:
[1] = tested on: MRSA ATCC 43300; assay: MIC/MBC by broth micro dilution; assay type: cell-based, methicillin-resistant S. aureus; conditions: for MIC: 37 °C, 24 h
Method in brief: (§1)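 CLSI broth microdilution in Mueller-Hinton broth, 0.016–32 µg/mL final, triplicates, 24 h at 37 °C. MBC: clear wells plated on MH agar, lowest concentration giving 99.9% reduction in viable counts.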

[2] = tested on: S. aureus 144; assay: MIC/MBC by broth micro dilution; assay type: cell-based; conditions: Staphylococcus aureus, S. aureus 144 (clinical strain)
Method in brief: as §1

[3] = tested on: S. aureus AD3; assay: MIC/MBC by broth micro dilution; assay type: cell-based; conditions: Staphylococcus aureus, S. aureus AD3 (clinical strain)
Method in brief: as §1

[4] = tested on: S. aureus ATCC 29213; assay: MIC/MBC by broth micro dilution; assay type: cell-based; conditions: Staphylococcus aureus
Method in brief: as §1

[5] = tested on: MRSA ATCC 43300; assay: Constant concentration time-kill curves; assay type: cell-based, methicillin-resistant S. aureus
Procedure: The time-kill kinetic approach was used to investigate the anti-MRSA activity of compounds 50, 62 and 64. The experimental results were presented in graphic form in Figure 2. Compared with growth control, compounds 50 and 62 inhibited the reproduction of bacteria to a certain extent.
The time-kill curve determination is an in vitro bactericidal kinetics model, which is used to study the sustained killing effect of bacteria within 24 h at a certain drug concentration. The bactericidal activity of compounds 50, 62 and 64 was determined by the time-kill curve as reported in our previous work[18]^,[22]. MRSA grown in MH broth were diluted to approximately 1 × 10^6 CFU/mL. […] 100 µL of samples were collected from the subculture inoculums before culture (0 h) and 3 h, 6 h, 9 h and 24 h after culture, and serially diluted 10-flod with sterile saline. The dilution of each gradient (25 µL) was uniformly suspended on the MH agar plates. The total bacterial CFU/mL on the plates were counted to calculate the bacterial colonies after up to 20 h of incubation at 37 °C. The results are represented by Mean ± SD, with the log10 CFU/mL of bacteria counts as the ordinate and time as the abscissa, the time-kill curves of different concentrations of compounds against MRSA were established respectively.

[6] = target: 50S ribosome; assay: SPR binding studies; set-up: species or system S. aureus; conditions: 4 °C
Procedure: In order to gain some insight into the binding mode of the potent inhibitors, SPR experiments were performed. […] The response unit (RU) of surface resonance was compared to determine the different binding affinities between each compound and the 50S ribosome. The association rate constants (Ka) and dissociation rate constant (Kd) represent the rate of association and dissociation in the binding reaction, respectively. The equilibrium dissociation constant (KD) indicated the degree of dissociation of compounds and the 50S ribosome in the equilibrium state. Their binding curves during the experiment were shown in Figure 3, as well as the concentration gradient curves were shown in Figure SI 27–34.
SPR biosensing experiments were performed at 4 °C using the bScreen LB 991 Label-free Microarray System (Berthold Technologies, Germany) and the photo-cross-linker sensor chip. The BIODOT™ AD-1520 Array Printer (BIODOT Inc., USA) was used for printing samples and control on the chip surface. A UV Spectroirradiator 1020 (Amersham Life Science, USA) was used for the photo-cross-linking reaction quickly after the array print.
As described in the reference[32–34] with minor modifications, the ribosome of S. aureus were extracted and purified to obtain 50S ribosome. MRSA (ATCC 43300) was incubated overnight at 37 °C. The bacteria solution was inoculated into a new culture solution, and cells were collected at an OD600 = 1.5. The bacterial culture was centrifuged 3 times at 3,500 rpm using a TX-400 rotor at 4 °C for 30 min, and then the supernatant was discarded. Cells were washed twice with 10 mM Tris-HCl (pH = 7.5), and suspend the precipitate with buffer A (20 mM HEPES-HCl pH = 7.5, 100 mM NH4Cl, 21 mM Mg(OAc)2, 1 mM EDTA, 1 mM DTT). Cells were lysed by repeated (>3×) snap-freezing and thawing, then ultrasonic disintegration was performed. To remove cell debris, the crushed product was centrifuged at 20,000 rpm for 90 min at 4 °C.The lysate layered on 15 ml of a sucrose cushion (10 mM HEPES-HCl pH = 7.5, 500 mM KCl, 25 mM Mg(OAc)2, 1.1 M sucrose, 0.5 mM EDTA, 1 mM DTT) and centrifuged in the ultracentrifuge(Optima^TM TL 100) at 45,000 rpm using a type70Ti rotor at 4 °C for 15 h to obtain ribosomal particles. Pellet was resuspended in 3 ml of buffer E (10 mM HEPES-HCl pH = 7.5, 100 mM KCl, 1 mM Mg(OAc)2, 0.5 mM EDTA, 1 mM DTT), then layered on 9 ml of 7–30% sucrose gradient and ultracentrifuged at 17,100 rpm using a typeSW40Ti rotor at 4 °C for 15 h. The gradient was analysed on the AKTA explorer system. The fractions corresponding to 50S ribosome were collected and PEG 20000 was added to a final concentration of 4.5% w/v. Ribosomes were pelleted by centrifugation at 20,000 rpm for 12 min, the pellet was gently dissolved in 200 µL of storage buffer (10 mM HEPES-HCl pH = 7.5, 15 mM KCl, 60 mM NH4Cl, 10 mM Mg(OAc)2, 1 mM DTT) and then flash-frozen for storage at −80 °C.
Dilute these compounds to a concentration of 10 mM with DMSO as the stationary phase printing working solution. After that, the printing working solution was printed on the sensor chip by the array printer, and each sample was printed four times repeatedly. Four groups of positive control dots (12 rapamycin dots, 3 in each corner) were printed on the four corners of the sensor chip respectively. The sample dots were dried in vacuum, and the sensor chip was quickly transferred to the UV spectroirradiator for a photo-cross-linking reaction. Subsequently, the sensor chip was washed with DMF, methanol, and water for 15 min in turn, followed by blowing dry under nitrogen, and then assembled with Flowcell Cover.
The binding studies were performed with PBST running buffer (pH = 7.4, 0.1% Tween 20) at a constant flow rate of 0.5 µL/s in instrument. 50S Ribosome was diluted separately with PBST running buffer to 200 nM, 400 nM, 800 nM, 1600 nM and 3200 nM and injected consecutively for 600 s at associating stage, followed by running buffer for 360 s at each dissociating stage. […]

[7] = lowest concentration reducing viable counts by 99.9%
[8] = PBST pH 7.4, compound immobilised, 50S ribosome 200-3200 nM

C=C[C@]1(C)C[C@@H](OC(=O)Cn2cc(CN3CCN(c4ccc([N+](=O)[O-])cc4)CC3)nn2)[C@]2(C)[C@H](C)CC[C@]3(CCC(=O)[C@H]32)[C@@H](C)[C@@H]1O [Compound 64, 22-(2-(4-(4-(4-Nitrophenyl)-piperazin-1-yl)-methyl)-1H-1,2,3-triazol-1-yl)-22-deoxy pleuromutilin]
MIC [1]: 0.5 µg/mL (≈ 0.771 µM) | MIC ([1]; Staphylococcus aureus, read-out: MIC): 0.5 µg/mL (≈ 0.771 µM) | MBC ([1]; Staphylococcus aureus, lowest concentration reducing viable counts by 99.9%): 1 µg/mL (≈ 1.54 µM) | MIC ([2]; 37 °C, 24 h): 2 µg/mL (≈ 3.08 µM) | MBC [2, 7]: 4 µg/mL (≈ 6.17 µM) | MIC ([3]; 37 °C, 24 h): 1 µg/mL (≈ 1.54 µM) | MBC [3, 7]: 4 µg/mL (≈ 6.17 µM) | MIC ([4]; ATCC29213, 37 °C, 24 h): 1 µg/mL (≈ 1.54 µM) | MBC ([4]; ATCC29213, lowest concentration reducing viable counts by 99.9%): 2 µg/mL (≈ 3.08 µM) | MRSA killing, log10 CFU/mL reduction ([5]; 16 × MIC, after 3 h incubation): 2.21 log10 CFU/mL | bacterial growth inhibition, log10 CFU/mL reduction ([5]; 16 × MIC, at 24 h): 4.49 log10 CFU/mL | concentration giving a bactericidal effect ([5]; time-kill, MRSA): higher than 4 × MIC | Kd ([6]; PBST pH 7.4, KD = Kd/Ka, read-out: KD (equilibrium dissociation constant)): 636 nM | Ka (association rate constant) [6, 8]: 1200 M⁻¹ s⁻¹ | Kd (dissociation rate constant) [6, 8]: 0.000764 s⁻¹
